pIC50: −log10 of the molar value. In brackets after ≈: the same amount, converted by molar mass. Activity calls are given as the source filed them. The calls are words filed in the database; no cut-off is given here.
Key:
[1] = Cytotoxicity against human THLE-2 cells assessed as reduction in cell viability incubated for 96 hrs by MTT assay; format: toxicity, cell-based
[2] = tested on: Candida albicans; assay: Antifungal activity against Candida albicans ATCC SC5314 assessed as fungal growth inhibition by CLSI based serial microbroth dilution method; format: functional
[3] = tested on: Candida albicans; assay: Antifungal activity against Candida albicans CPCC400616 assessed as fungal growth inhibition by CLSI based serial microbroth dilution method; format: functional
[4] = tested on: Candida tropicalis; assay: Antifungal activity against Candida tropicalis CGMCC 2.3739 assessed as fungal growth inhibition by CLSI based serial microbroth dilution method; format: functional
[5] = tested on: Cryptococcus neoformans; assay: Antifungal activity against Cryptococcus neoformans CGMCC 2.3161 assessed as fungal growth inhibition by CLSI based serial microbroth dilution method; format: functional
[6] = tested on: Candida parapsilosis; assay: Antifungal activity against Candida parapsilosis GIM 2.190 assessed as fungal growth inhibition by CLSI based serial microbroth dilution method; format: functional; conditions: Lodderomyces parapsilosis
[7] = tested on: Nakaseomyces glabratus; assay: Antifungal activity against Candida glabrata clinical isolate assessed as fungal growth inhibition by CLSI based serial microbroth dilution method; format: functional
[8] = tested on: Pichia kudriavzevii; assay: Antifungal activity against Candida krusei GIM 2.1 assessed as fungal growth inhibition by CLSI based serial microbroth dilution method; format: functional
[9] = tested on: Aspergillus fumigatus; assay: Antifungal activity against Aspergillus fumigatus CGMCC 3.7795 assessed as fungal growth inhibition by CLSI based serial microbroth dilution method; format: functional
[10] = tested on: Candida albicans; assay: Antifungal activity against FLC and ITC-resistant Candida albicans 17 assessed as fungal growth inhibition by CLSI based serial microbroth dilution method; format: functional
[11] = tested on: Candida albicans; assay: Antifungal activity against FLC-resistant Candida albicans CaR assessed as fungal growth inhibition by CLSI based serial microbroth dilution method; format: functional
[12] = tested on: Candida albicans; assay: Antifungal activity against FLC-resistant Candida albicans 901 assessed as fungal growth inhibition by CLSI based serial microbroth dilution method; format: functional
[13] = tested on: Candida albicans; assay: Antifungal activity against FLC-resistant Candida albicans 904 assessed as fungal growth inhibition by CLSI based serial microbroth dilution method; format: functional
[14] = tested on: Candida albicans; assay: Antifungal activity against FLC-resistant Candida albicans 632 assessed as fungal growth inhibition by CLSI based serial microbroth dilution method; format: functional
[15] = tested on: Candida albicans; assay: Antifungal activity against FLC-resistant Candida albicans 100 assessed as fungal growth inhibition by CLSI based serial microbroth dilution method; format: functional
[16] = tested on: Candida albicans; assay: Antifungal activity against FLC-resistant Candida albicans 103 assessed as fungal growth inhibition by CLSI based serial microbroth dilution method; format: functional
[17] = tested on: Candida albicans; assay: Antifungal activity against FLC-resistant Candida albicans 311 assessed as fungal growth inhibition by CLSI based serial microbroth dilution method; format: functional
[18] = molecular target: T1, Lanosterol 14-alpha demethylase (Candida albicans (strain SC5314 / ATCC MYA-2876) (Yeast), UniProt P10613); assay: Inhibition of CYP51 in Candida albicans ATCC SC5314 assessed as lanosterol level at 0.0075 ug/ml measured after 18 hrs by GC-MS analysis relative to control; parameters: scale not given: the % may be the effect or the level left; conditions: at 0.0075 µg/mL
[19] = molecular target: T1, Lanosterol 14-alpha demethylase; assay: Inhibition of CYP51 in Candida albicans ATCC SC5314 assessed as ergosterol level at 0.0075 ug/ml measured after 18 hrs by GC-MS analysis (reference value: 96.93 %); parameters: scale not given: the % may be the effect or the level left; conditions: at 0.0075 µg/mL
[20] = molecular target: T1, Lanosterol 14-alpha demethylase; assay: Inhibition of CYP51 in Candida albicans ATCC SC5314 assessed as eburicol level at 0.0075 ug/ml measured after 18 hrs by GC-MS analysis relative to control; parameters: scale not given: the % may be the effect or the level left; conditions: at 0.0075 µg/mL
[21] = molecular target: T1, Lanosterol 14-alpha demethylase; assay: Inhibition of CYP51 in Candida albicans ATCC SC5314 assessed as 14alpha-methylergosta-8,24(28)-dien-3beta-6alpha-diol level at 0.0075 ug/ml measured after 18 hrs by GC-MS analysis relative to control; parameters: scale not given: the % may be the effect or the level left; conditions: at 0.0075 µg/mL
[22] = molecular target: T1, Lanosterol 14-alpha demethylase; assay: Inhibition of CYP51 in Candida albicans ATCC SC5314 assessed as unknown sterol level at 0.0075 ug/ml measured after 18 hrs by GC-MS analysis (reference value: 3.07 %); parameters: scale not given: the % may be the effect or the level left; conditions: at 0.0075 µg/mL
[23] = tested on: Cell membrane; assay: Disruption of membrane integrity in Candida albicans ATCC SC5314 assessed as rupture of fungal cells at 16 ug/ml incubated for 48 hrs by transmission electron microscopy; format: subcellular; conditions: dose 16.0 µg/ml
[24] = tested on: Cell membrane; assay: Disruption of membrane integrity in Candida albicans ATCC SC5314 assessed as cell membrane damage at 16 ug/ml incubated for 48 hrs by transmission electron microscopy; format: subcellular; conditions: dose 16.0 µg/ml
[25] = tested on: Cell membrane; assay: Disruption of membrane integrity in Candida albicans ATCC SC5314 assessed as endogenous substances leakage at 16 ug/ml incubated for 48 hrs by transmission electron microscopy; format: subcellular; conditions: dose 16.0 µg/ml
[26] = tested on: Candida albicans; assay: Antibiofilm activity against Candida albicans […] assessed as inhibition of […] metabolism within the biofilm measured after 3 hrs by XTT reduction assay; format: functional
[27] = tested on: Candida albicans; assay: Antibiofilm activity against Candida albicans […] assessed as inhibition of […] metabolism within the biofilm measured after 6 hrs by XTT reduction assay; format: functional
[28] = tested on: Candida albicans; assay: Antibiofilm activity against Candida albicans […] assessed as inhibition of […] metabolism within the biofilm measured after 18 hrs by XTT reduction assay; format: functional
[29] = tested on: Candida albicans; assay: Antibiofilm activity against Candida albicans […] assessed as inhibition of […] metabolism activity in the biofilm measured after 24 hrs by XTT reduction assay; format: functional
[30] = tested on: Candida albicans; assay: Antibiofilm activity against Candida albicans […] assessed as inhibition of […] metabolism activity in the biofilm measured after 48 hrs by XTT reduction assay; format: functional
[31] = tested on: Candida albicans; assay: Fungicidal activity against Candida albicans CPCC400616 measured after 48 hrs; format: functional
[32] = tested on: Candida albicans; assay: Fungicidal activity in Candida albicans CPCC400616 assessed as reduction in viable colony formation at 0.25 ug/ml measured within 16 hrs by time kill assay; format: functional, organism-based; conditions: dose 0.25 µg/ml
[33] = tested on: A549; assay: Cytotoxicity against human A549 cells assessed as reduction in cell viability incubated for 96 hrs by MTT assay; format: functional, cell-based; conditions: A549, 96 h
[34] = tested on: MCF7; assay: Cytotoxicity against human MCF7 cells assessed as reduction in cell viability incubated for 96 hrs by MTT assay; format: functional, cell-based; conditions: MCF7, 96 h
[35] = Cytotoxicity against human HepG2 cells assessed as reduction in cell viability incubated for 96 hrs by MTT assay; format: toxicity, cell-based
[36] = tested on: RAW264.7; assay: Cytotoxicity against mouse RAW264.7 cells assessed as reduction in cell viability incubated for 96 hrs by MTT assay; format: functional, cell-based; conditions: RAW264.7, 96 h
[37] = Stability of the compound in human plasma assessed as parent compound remaining after […] by LC-MS/MS analysis; format: ADME, cell-free; conditions: read-out: Stability
[38] = Stability of the compound in human plasma assessed as parent compound remaining after 120 hrs by LC-MS/MS analysis; format: ADME, cell-free; conditions: read-out: Stability
[39] = Stability of the compound in human plasma assessed as half life measured after […] by LC-MS/MS analysis; format: ADME, cell-free
[40] = tested on: Cell membrane; assay: Disruption of membrane integrity in Candida albicans ATCC SC5314 assessed as cell wall damage at 16 ug/ml incubated for 48 hrs by transmission electron microscopy; format: subcellular; conditions: dose 16.0 µg/ml

T1 sequence (P10613 whole entry): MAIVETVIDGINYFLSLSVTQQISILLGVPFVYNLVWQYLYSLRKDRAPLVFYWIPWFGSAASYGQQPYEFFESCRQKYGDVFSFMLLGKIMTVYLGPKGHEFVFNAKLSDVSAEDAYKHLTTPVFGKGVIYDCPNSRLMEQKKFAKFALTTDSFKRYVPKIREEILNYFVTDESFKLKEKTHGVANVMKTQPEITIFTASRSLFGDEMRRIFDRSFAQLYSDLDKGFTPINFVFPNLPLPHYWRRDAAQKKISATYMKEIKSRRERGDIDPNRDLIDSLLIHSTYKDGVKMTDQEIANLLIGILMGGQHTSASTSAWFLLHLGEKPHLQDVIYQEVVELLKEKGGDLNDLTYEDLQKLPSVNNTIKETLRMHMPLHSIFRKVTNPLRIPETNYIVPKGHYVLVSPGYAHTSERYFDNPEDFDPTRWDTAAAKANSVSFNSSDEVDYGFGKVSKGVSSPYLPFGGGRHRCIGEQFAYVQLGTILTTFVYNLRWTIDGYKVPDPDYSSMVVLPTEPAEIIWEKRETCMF

Work on `Fc1cccc(F)c1CC1(Cn2cncn2)COC(c2ccc(-c3ccsc3)cc2)=N1` (stereo not given) yielded an IC50 at 96 h [1] of over 50 µM, an MIC [2] of 0.015 µg/mL (≈ 0.0344 µM) and an MIC [3] of 0.015 µg/mL (≈ 0.0344 µM). It also gave an MIC [4] of 0.03 µg/mL (≈ 0.0687 µM), an MIC [5] of 0.06 µg/mL (≈ 0.137 µM) and an MIC [6] of 0.125 µg/mL (≈ 0.286 µM). It also gave an MIC [7] of 0.06 µg/mL (≈ 0.137 µM), an MIC [8] of 0.125 µg/mL (≈ 0.286 µM) and an MIC [9] of 16 µg/mL (≈ 36.7 µM). The MIC [10] was 4 µg/mL (≈ 9.16 µM), the MIC [11] was 0.25 µg/mL (≈ 0.573 µM) and the MIC [12] was 0.25 µg/mL (≈ 0.573 µM). For the same compound, the MIC [13] was 1 µg/mL (≈ 2.29 µM), the MIC [14] was 4 µg/mL (≈ 9.16 µM) and the MIC [15] was 1 µg/mL (≈ 2.29 µM). It also gave an MIC [16] of 1 µg/mL (≈ 2.29 µM), an MIC [17] of 2 µg/mL (≈ 4.58 µM) and an Activity [18] of 31.91%. It also gave an Activity [19] of 4.61%, an Activity [20] of 24.69% and an Activity [21] of 28.2%. The Activity [22] was 1.92%, the Activity [23] was “Active” and the Activity [24] was “Active”. The Activity [25] was “Active”, the MIC50 [26] was 0.125 µg/mL (≈ 0.286 µM) and the MIC50 [27] was 0.125 µg/mL (≈ 0.286 µM). It also gave an MIC50 [28] of 2 µg/mL (≈ 4.58 µM), an MIC50 [29] of 16 µg/mL (≈ 36.7 µM) and an MIC50 [30] of over 64 µg/mL. For the same compound, the MFC [31] was 0.25 µg/mL (≈ 0.573 µM), the Activity [32] was “Active” and the pIC50 [33] was under 4.30. The pIC50 [34] was under 4.30, the IC50 at 96 h [35] was 39.3 µM and the pIC50 [36] was 4.49. For the same compound, the remaining [37] was 96.8%, the remaining at 120 h [38] was 98.2% and the half-life [39] was over 4.8 h. The Activity [40] was “Active”.

Source: ChEMBL document CHEMBL5154783, “Design, synthesis, and evaluation of novel 3-thiophene derivatives as potent fungistatic and fungicidal reagents based on a conformational restriction strategy” (Eur J Med Chem, 2022)
